biological target: T1, ΔF508-CFTR (Homo sapiens, UniProt P13569, DEL508-508); assay: Membrane potential optical assay (FRET voltage-sensor dyes, VIPR), identification of potentiator compounds; assay type: cell-based; settings: Table 3; assay not given
T1 construct: expressed in transfected cells
How it was run: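 Potentiator screen measured membrane potential via FRET between CC2-DMPE donor and DiSBAC2(3), read on VIPR II. Compound went in with the first addition of chloride-free gluconate bath; cells were ΔF508-CFTR-expressing NIH3T3 mouse fibroblasts, temperature-corrected at 27 °C for 24 h.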

T1 sequence (P13569 with tags, fused parts or gaps DEL508-508): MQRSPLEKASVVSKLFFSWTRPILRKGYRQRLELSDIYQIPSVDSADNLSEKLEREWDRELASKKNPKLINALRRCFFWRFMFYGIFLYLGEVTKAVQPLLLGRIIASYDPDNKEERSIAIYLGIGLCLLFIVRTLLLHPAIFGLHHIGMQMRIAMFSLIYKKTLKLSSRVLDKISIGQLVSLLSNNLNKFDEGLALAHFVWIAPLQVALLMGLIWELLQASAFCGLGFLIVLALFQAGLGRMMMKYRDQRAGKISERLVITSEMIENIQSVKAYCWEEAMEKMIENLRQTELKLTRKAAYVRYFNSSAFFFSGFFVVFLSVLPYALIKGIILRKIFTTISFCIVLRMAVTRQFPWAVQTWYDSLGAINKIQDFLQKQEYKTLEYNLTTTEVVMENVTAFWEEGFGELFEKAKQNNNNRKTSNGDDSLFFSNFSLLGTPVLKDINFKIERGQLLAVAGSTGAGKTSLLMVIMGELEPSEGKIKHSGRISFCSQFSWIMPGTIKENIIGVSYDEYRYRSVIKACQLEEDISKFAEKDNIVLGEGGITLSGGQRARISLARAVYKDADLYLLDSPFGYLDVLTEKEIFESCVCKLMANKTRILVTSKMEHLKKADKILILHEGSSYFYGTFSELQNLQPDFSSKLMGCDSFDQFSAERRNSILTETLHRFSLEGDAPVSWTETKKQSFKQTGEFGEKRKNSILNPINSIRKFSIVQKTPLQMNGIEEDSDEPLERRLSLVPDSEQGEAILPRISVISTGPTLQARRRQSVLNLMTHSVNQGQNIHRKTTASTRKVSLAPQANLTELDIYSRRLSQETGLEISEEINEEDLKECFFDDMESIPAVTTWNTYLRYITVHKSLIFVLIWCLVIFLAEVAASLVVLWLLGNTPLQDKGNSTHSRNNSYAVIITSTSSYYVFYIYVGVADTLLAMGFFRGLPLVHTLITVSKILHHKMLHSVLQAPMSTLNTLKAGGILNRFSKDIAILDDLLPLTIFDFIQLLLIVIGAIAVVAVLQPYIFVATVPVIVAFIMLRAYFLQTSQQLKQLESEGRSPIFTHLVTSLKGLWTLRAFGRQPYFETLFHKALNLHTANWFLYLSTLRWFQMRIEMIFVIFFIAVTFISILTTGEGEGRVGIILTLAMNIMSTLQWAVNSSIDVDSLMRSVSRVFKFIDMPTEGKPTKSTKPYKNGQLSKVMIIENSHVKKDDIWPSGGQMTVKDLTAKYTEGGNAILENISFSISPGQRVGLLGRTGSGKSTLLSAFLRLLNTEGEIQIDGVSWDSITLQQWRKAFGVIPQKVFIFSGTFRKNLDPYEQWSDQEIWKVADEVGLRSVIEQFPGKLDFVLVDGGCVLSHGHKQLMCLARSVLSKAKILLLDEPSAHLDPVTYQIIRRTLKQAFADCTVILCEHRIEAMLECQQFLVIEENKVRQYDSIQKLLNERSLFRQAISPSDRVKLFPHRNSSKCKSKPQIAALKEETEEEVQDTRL

EC50 [µM]	Structure (SMILES)
< 10	O=C(Nc1ccc(C2CCCCC2)cc1)c1c[nH]c2ccccc2c1=O [Compound 140, N-(4-cyclohexylphenyl)-4-oxo-1H-quinoline-3-carboxamide]
< 10	CCc1ccc(NC(=O)c2c[nH]c3ccccc3c2=O)cc1 [Compound 463, N-(4-ethylphenyl)-4-oxo-1H-quinoline-3-carboxamide]

same assay, conditions: Table 3; assay not given; read-out: % Activity (% Efficacy, relative efficacy)

Emax [%]	Structure (SMILES)
25 to 100	CC(C)c1ccc(NC(=O)c2c[nH]c3c(F)cccc3c2=O)c(C(F)(F)F)c1 [Compound 573, 8-fluoro-N-[4-isopropyl-2-(trifluoromethyl)phenyl]-4-oxo-1H-quinoline-3-carboxamide]
25 to 100	Cc1ccc(C(F)(F)F)cc1NC(=O)c1c[nH]c2ccccc2c1=O [Compound 577, N-[2-methyl-5-(trifluoromethyl)phenyl]-4-oxo-1H-quinoline-3-carboxamide]
25 to 100	CC1(c2ccc(NC(=O)c3c[nH]c4ccccc4c3=O)cc2)COC1 [Compound 523, N-[4-(3-methyloxetan-3-yl)phenyl]-4-oxo-1H-quinoline-3-carboxamide]
< 25	O=C(Nc1cccc2ncccc12)c1c[nH]c2ccccc2c1=O [Compound 191, 4-oxo-N-(5-quinolyl)-1H-quinoline-3-carboxamide]
> 100	C=C(C)c1ccccc1NC(=O)c1c[nH]c2ccccc2c1=O [Compound 445, N-(2-isopropenylphenyl)-4-oxo-1H-quinoline-3-carboxamide]
25 to 100	O=C(Nc1cccc(-c2cccs2)c1)c1c[nH]c2ccccc2c1=O [Compound 549, 4-oxo-N-[3-(2-thienyl)phenyl]-1H-quinoline-3-carboxamide]
25 to 100	COc1nc2ccccc2c(OC)c1C(=O)Nc1cc(NC(=O)OC(C)(C)C)ccc1C(C)(C)C [Compound 39, [3-[(2,4-dimethoxy-3-quinolyl)carbonylamino]-4-tert-butyl-phenyl]aminoformic acid tert-butyl ester]
25 to 100	O=C(Nc1ccccc1-c1cccc(C(F)(F)F)c1)c1c[nH]c2ccccc2c1=O [Compound 278, 4-oxo-N-[2-[3-(trifluoromethyl)phenyl]phenyl]-1H-quinoline-3-carboxamide]
25 to 100	Cc1cc(NC(=O)c2c[nH]c3ccccc3c2=O)ccc1F [Compound 257, N-(4-fluoro-3-methyl-phenyl)-4-oxo-1H-quinoline-3-carboxamide]
< 25	O=C(Nc1ccc(N2CCOCC2)cc1)c1c[nH]c2ccccc2c1=O [Compound 457, N-(4-morpholinophenyl)-4-oxo-1H-quinoline-3-carboxamide]
25 to 100	COc1ccccc1Oc1ccc(C(F)(F)F)cc1NC(=O)c1c[nH]c2ccccc2c1=O [Compound 3, N-[2-(2-methoxyphenoxy)-5-(trifluoromethyl)phenyl]-4-oxo-1H-quinoline-3-carboxamide]
25 to 100	CC(C)(C)c1cccc(NC(=O)c2c[nH]c3ccccc3c2=O)c1 [Compound 602, 4-oxo-N-(3-tert-butylphenyl)-1H-quinoline-3-carboxamide]
25 to 100	O=C(Nc1ccc(C(F)(F)F)cc1N1CCCCC1)c1c[nH]c2ccccc2c1=O [Compound 514, 4-oxo-N-[2-(1-piperidyl)-4-(trifluoromethyl)phenyl]-1H-quinoline-3-carboxamide]
25 to 100	CCC(CC)(CC)c1cc(F)c(NC(=O)c2cnc3ccccc3c2O)cc1O [Compound 34, N-[4-(1,1-diethylpropyl)-2-fluoro-5-hydroxy-phenyl]-4-hydroxy-quinoline-3-carboxamide]
25 to 100	COc1ncccc1NC(=O)c1c[nH]c2ccccc2c1=O [Compound 15, N-(2-methoxy-3-pyridyl)-4-oxo-1H-quinoline-3-carboxamide]
25 to 100	O=C(Nc1cc2[nH]ccc2cc1C(F)(F)F)c1c[nH]c2cccc(O)c2c1=O [Compound 494, 5-hydroxy-4-oxo-N-[5-(trifluoromethyl)-1H-indol-6-yl]-1H-quinoline-3-carboxamide]
25 to 100	O=C(c1ccccc1)c1ccccc1NC(=O)c1c[nH]c2ccccc2c1=O [Compound 252, N-(2-benzoylphenyl)-4-oxo-1H-quinoline-3-carboxamide]
25 to 100	COC(=O)c1cc(NC(=O)c2c[nH]c3ccccc3c2=O)ccc1C(C)(C)C [Compound 444, 5-[(4-oxo-1H-quinolin-3-yl)carbonylamino]-2-tert-butyl-benzoic acid methyl ester]
> 100	CC(C)(C)c1cc2cc[nH]c2cc1NC(=O)c1c[nH]c2ccc(F)cc2c1=O [Compound 124, 6-fluoro-4-oxo-N-(5-tert-butyl-1H-indol-6-yl)-1H-quinoline-3-carboxamide]
25 to 100	CC(C)(C)C(=O)Nc1ccc(NC(=O)c2c[nH]c3ccccc3c2=O)c(C(F)(F)F)c1 [Compound 556, N-[4-(2,2-dimethylpropanoylamino)-2-(trifluoromethyl)phenyl]-4-oxo-1H-quinoline-3-carboxamide]

Emax [%]	Structure (SMILES)
25 to 100	CC1(C)CCOc2cc(NC(=O)c3c[nH]c4ccccc4c3=O)ccc21 [Compound 204, N-(4,4-dimethylchroman-7-yl)-4-oxo-1H-quinoline-3-carboxamide]
25 to 100	O=C(Nc1ccc2ccn(Cc3ccccc3)c2c1)c1c[nH]c2ccccc2c1=O [Compound 203, N-(1-benzyl-1H-indol-6-yl)-4-oxo-1H-quinoline-3-carboxamide]
25 to 100	O=C(Nc1ccc(N2CCC[C@@H]2CO)cc1C(F)(F)F)c1c[nH]c2ccccc2c1=O [Compound 670, (R)-N-(4-(2-(hydroxymethyl)pyrrolidin-1-yl)-2-(trifluoromethyl)phenyl)-4-oxo-1,4-dihydroquinoline-3-carboxamide]
25 to 100	O=C(Nc1ccccc1Cl)c1c[nH]c2ccccc2c1=O [Compound 330, N-(2-chlorophenyl)-4-oxo-1H-quinoline-3-carboxamide]
> 100	CC(C)(C)c1cc(C(C)(C)C)c(NC(=O)c2c[nH]c3ccc(F)cc3c2=O)cc1O [Compound 103, 6-fluoro-N-(5-hydroxy-2,4-ditert-butyl-phenyl)-4-oxo-1H-quinoline-3-carboxamide]
25 to 100	O=C(Nc1ccc(N2CCC(CO)CC2)cc1C(F)(F)F)c1c[nH]c2ccccc2c1=O [Compound 668, N-[4-[4-(hydroxymethyl)-1-piperidyl]-2-(trifluoromethyl)phenyl]-4-oxo-1H-quinoline-3-carboxamide]
25 to 100	CCOc1ccccc1-c1ccc(NC(=O)OC(C)(C)C)cc1NC(=O)c1c[nH]c2ccccc2c1=O [Compound 114, [4-(2-ethoxyphenyl)-3-[(4-oxo-1H-quinolin-3-yl)carbonylamino]phenyl]aminoformic acid tert-butyl ester]
< 25	O=C(Nc1ccc2oc(-c3ccccc3)nc2c1)c1c[nH]c2ccccc2c1=O [Compound 376, 4-oxo-N-(2-phenylbenzooxazol-5-yl)-1H-quinoline-3-carboxamide]
25 to 100	CCOC(=O)Nc1cc(NC(=O)c2c[nH]c3ccccc3c2=O)ccc1C [Compound 141, [2-methyl-5-[(4-oxo-1H-quinolin-3-yl)carbonylamino]phenyl]aminoformic acid ethyl ester]
25 to 100	O=C(Nc1ccc(C2CCCCC2)cc1)c1c[nH]c2ccccc2c1=O [Compound 140, N-(4-cyclohexylphenyl)-4-oxo-1H-quinoline-3-carboxamide]
25 to 100	CCOC(=O)c1cc2cc[nH]c2cc1NC(=O)c1c[nH]c2ccccc2c1=O [Compound 188, 6-[(4-oxo-1H-quinolin-3-yl)carbonylamino]-1H-indole-5-carboxylic acid ethyl ester]
25 to 100	CN(c1ccc(F)cc1)S(=O)(=O)c1ccc2[nH]cc(C(=O)Nc3cc4[nH]ccc4cc3C(C)(C)C)c(=O)c2c1 [Compound 406, 6-[(4-fluorophenyl)-methyl-sulfamoyl]-4-oxo-N-(5-tert-butyl-1H-indol-6-yl)-1H-quinoline-3-carboxamide]
25 to 100	COc1ccc(-c2ccccc2NC(=O)c2c[nH]c3ccccc3c2=O)cc1OC [Compound 436, N-[2-(3,4-dimethoxyphenyl)phenyl]-4-oxo-1H-quinoline-3-carboxamide]
25 to 100	CCc1ccc(NC(=O)c2c[nH]c3ccccc3c2=O)cc1 [Compound 463, N-(4-ethylphenyl)-4-oxo-1H-quinoline-3-carboxamide]
25 to 100	Cc1cc2cc(NC(=O)c3c[nH]c4ccccc4c3=O)ccc2[nH]1 [Compound 230, N-(2-methyl-1H-indol-5-yl)-4-oxo-1H-quinoline-3-carboxamide]
25 to 100	CC(O)c1ccc(NC(=O)c2c[nH]c3ccccc3c2=O)cc1 (centres unmarked) [Compound 450, N-[4-(1-hydroxyethyl)phenyl]-4-oxo-1H-quinoline-3-carboxamide]
25 to 100	CCC(C)c1ccc(NC(=O)c2c[nH]c3ccccc3c2=O)cc1 (centres unmarked) [Compound 310, 4-oxo-N-(4-sec-butylphenyl)-1H-quinoline-3-carboxamide]
< 25	O=C(Nc1cc2ccccc2cn1)c1c[nH]c2ccccc2c1=O [Compound 309, N-(3-isoquinolyl)-4-oxo-1H-quinoline-3-carboxamide]
25 to 100	CC(C)(C)c1cc(C(C)(C)C)c(NC(=O)c2c[nH]c3cc(F)c(F)cc3c2=O)cc1O [Compound 672, 6,7-difluoro-N-(5-hydroxy-2,4-ditert-butyl-phenyl)-4-oxo-1H-quinoline-3-carboxamide]

— patent publication US8802700B2 (Vertex Pharmaceuticals Incorporated, priority 2010, dated 2014)
